Test results reported in patent publication US9849178B2, “Combination of carotenoids and epi-lutein” (Gupron GmbH, priority 2009, dated 2017).
Read-outs that look alike come from different tables or passages of the source. One block for each compound: values may come before it.

Columns and labels:
[1] = Pharmacokinetics of lutein and zeaxanthin with/without epi-lutein after intravenous administration; assay type: in vivo, wistar rats
Method: 14 days wash-out period before this study
Subject: 3 wistar rats each group
Feeding type: intravenous administration
Group A: 4 mg lutein/Kg body weight
Group B: (2 mg lutein+2 mg epi-lutein)/Kg body weight
Group C: 4 mg zeaxanthin/Kg body weight
Group D: (2 mg zeaxanthin 2 mg epi-lutein)/Kg body weight
Blood sampling: 15, 30, 60 minutes, 3 and 6 hours after feeding

[2] = Epi-lutein study: plasma levels after oral administration (gavage) for 7 consecutive days; assay type: in vivo, Rats, Sprague-Dawley; conditions: for Cmax: day 7, rat plasma; for AUC / AUC(0-t): rat, plasma; for AUC: read-out: AUC0-τ; for AUC(0-t): read-out: AUC0-12 h; for AUC0-12 h (dose corrected) / AUC0-τ (dose corrected) / Cmax (dose corrected): dose corrected to 0.1 mg Lutein/kg BW
Method: [table] Study Design: Oral administration (gavage) of Treatment I for 7 consecutive days in 5 rats followed by a 14 days wash-out period and oral administration (gavage) of Treatment II for 7 consecutive days Blood Sampling: On day 7 of treatment prior to treatment and 15 min, 1, 3, 6, 9, 12 and 24 hours after treatment. About 400 μL blood were be transferred to Vacutainer tubes containing EDTA. Whole blood samples were centrifuged, as soon as possible from the designated time of collection, at 1200 g for approximately 10 minutes. All plasma samples (at least 200 μL) were be stored deep frozen at ≦−30° C., until shipping on dry ice. [table] Plasma Analysis: Lutein, Epilutein, Zeaxanthin and Oxidized metabolites

[3] = Treatment II (mixture together with epi-lutein)

AUC(0-inf) ([1]; rat, 4 mg/kg, heading: AUC0-inf, wistar rats, intravenous, A 4 mg lutein/Kg, B 2 mg lutein+2 mg epi-lutein/Kg, C 4 mg zeaxanthin/Kg, D 2 mg zeaxanthin+2 mg epi-lutein/Kg, lutein (A,B) or zeaxanthin (C,D) in plasma): 21300 ng·h/mL
AUC(0-t) ([1]; rat, 4 mg/kg, heading: AUC0-t, wistar rats, intravenous, A 4 mg lutein/Kg, B 2 mg lutein+2 mg epi-lutein/Kg, C 4 mg zeaxanthin/Kg, D 2 mg zeaxanthin+2 mg epi-lutein/Kg, lutein (A,B) or zeaxanthin (C,D) in plasma): 11700 ng·h/mL
half-life ([1]; rat, 4 mg/kg, wistar rats, intravenous, A 4 mg lutein/Kg, B 2 mg lutein+2 mg epi-lutein/Kg, C 4 mg zeaxanthin/Kg, D 2 mg zeaxanthin+2 mg epi-lutein/Kg, lutein (A,B) or zeaxanthin (C,D) in plasma, read-out: T½): 5.08 h
plasma half life after treatment with epi-lutein ([1]; wistar rats, intravenous, with vs without epi-lutein): substantially prolonged
increase in the pharmacokinetic parameters of lutein, dose corrected ([2]; 0.1 mg lutein/kg BW mixed with approximately 0.1 mg epi-lutein/kg BW vs single compound, time interval 0-12 hours): about 100%
Cmax ([2]; Sprague-Dawley, 0.282 mg/kg BW, Treatment I (0.282 mg lutein/kg BW, oral gavage), read-out: Cmax): 941 ng/mL
AUC ([2]; Sprague-Dawley, 0.282 mg/kg BW, Treatment I (0.282 mg lutein/kg BW, oral gavage), day 7, τ 24 hours): 18100 ng·h/mL
AUC(0-t) ([2]; Sprague-Dawley, 0.282 mg/kg BW, Treatment I (0.282 mg lutein/kg BW, oral gavage), day 7): 9780 ng·h/mL
AUC ([2]; Sprague-Dawley, Treatment II (0.147 mg lutein + 0.135 mg epi-lutein/kg BW, oral gavage), day 7, τ 24 hours): 14300 ng·h/mL
AUC(0-t) ([2]; Sprague-Dawley, Treatment II (0.147 mg lutein + 0.135 mg epi-lutein/kg BW, oral gavage), day 7): 9340 ng·h/mL
Cmax ([2]; Sprague-Dawley, Treatment II (0.147 mg lutein + 0.135 mg epi-lutein/kg BW, oral gavage), read-out: Cmax): 939 ng/mL
AUC0-12 h (dose corrected) ([2]; Treatment I (pure compound)): 3261 ng × h × ml^−1/0.1 mg Lut/kg B
AUC0-τ (dose corrected) ([2]; Treatment I (pure compound)): 6050 ng × h × ml^−1/0.1 mg Lut/kg B
Cmax (dose corrected) ([2]; Treatment I (pure compound)): 314 [ng/ml]/0.1 mg Lut/kg BW
AUC0-12 h (dose corrected) [2, 3]: 6230 ng × h × ml^−1/0.1 mg Lut/kg B
AUC0-τ (dose corrected) [2, 3]: 9560 ng × h × ml^−1/0.1 mg Lut/kg B
Cmax (dose corrected) [2, 3]: 626 [ng/ml]/0.1 mg Lut/kg BW
Structure (SMILES): CC1=C[C@H](O)CC(C)(C)[C@H]1/C=C/C(C)=C/C=C/C(C)=C/C=C/C=C(C)/C=C/C=C(C)/C=C/C1=C(C)C[C@@H](O)CC1(C)C [Lutein, (3R,3′R,6′R)-beta, epsilon-carotene-3,3′-diol]

AUC0-12 h ([2]; Treatment II (0.147 mg lutein + 0.135 mg epi-lutein/kg BW, oral gavage), day 7): 3724 ng·h/mL
Cmax ([2]; Treatment II (0.147 mg lutein + 0.135 mg epi-lutein/kg BW, oral gavage)): 428 ng/mL
AUC0-τ ([2]; Treatment II (0.147 mg lutein + 0.135 mg epi-lutein/kg BW, oral gavage), day 7, τ 24 hours): 6286 ng·h/mL
Structure (SMILES): CC1=C[C@@H](O)CC(C)(C)[C@H]1/C=C/C(C)=C/C=C/C(C)=C/C=C/C=C(C)/C=C/C=C(C)/C=C/C1=C(C)C[C@@H](O)CC1(C)C [Epi-Lutein, (3R,3′S,6′R)-lutein]

T½ ([1]; rat, in vivo, iv): 5 h
plasma half life after treatment with epi-lutein ([1]; rat, in vivo, iv): substantially prolonged
Structure (SMILES): CC1=C(/C=C/C(C)=C/C=C/C(C)=C/C=C/C=C(C)/C=C/C=C(C)/C=C/C2=C(C)C[C@@H](O)CC2(C)C)C(C)(C)C[C@H](O)C1 [Zeaxanthin, (3R,3′R)-beta, beta carotene-3,3′-diol]
